According to BindingDB's records for PubMed 11082453 (Abbott Laboratories, 2000):

How the values were obtained:
[1] = target: Norepinephrine transporter (Rattus norvegicus, UniProt Q9JIA2)
Vasopressin V2 receptor = Vasopressin V2 receptor (Rattus norvegicus, UniProt Q00788)
[2] = target: Bombesin receptor subtype-3 (Rattus norvegicus, UniProt Q8K418)
[3] = target: Glutamate receptor ionotropic, kainate 1 (Rattus norvegicus, UniProt P22756)
5'-nucleotidase = 5'-nucleotidase (Rattus norvegicus, UniProt P21588)
Galanin peptides = Galanin peptides (Rattus norvegicus, UniProt P10683)
Substance-P receptor = Substance-P receptor (Rattus norvegicus, UniProt P14600)
[4] = target: Chloride channel protein 1 (Rattus norvegicus, UniProt P35524)
[5] = target: Voltage-dependent L-type calcium channel subunit alpha-1C (Rattus norvegicus, UniProt P22002)
[6] = target: Muscarinic acetylcholine receptor M5 (Rattus norvegicus, UniProt P08911)
Substance-K receptor = Substance-K receptor (Rattus norvegicus, UniProt P16610)
Cannabinoid receptor 1 = Cannabinoid receptor 1 (Rattus norvegicus, UniProt P20272)
[7] = target: Kappa-type opioid receptor (Rattus norvegicus, UniProt P34975)
[8] = target: Muscarinic acetylcholine receptor M4 (Rattus norvegicus, UniProt P08485)
Histamine H2 receptor = Histamine H2 receptor (Rattus norvegicus, UniProt P25102)
[9] = target: Neuropeptide Y receptor type 2 (Rattus norvegicus, UniProt Q9ERC0)
Interleukin-1 alpha = Interleukin-1 alpha (Rattus norvegicus, UniProt P16598)
Pro-neuropeptide Y = Pro-neuropeptide Y (Rattus norvegicus, UniProt P07808)
[10] = target: Prostaglandin G/H synthase 1 (Rattus norvegicus, UniProt Q63921)
[11] = target: Amine oxidase [flavin-containing] B (Rattus norvegicus, UniProt P19643)
D(4) dopamine receptor = D(4) dopamine receptor (Rattus norvegicus, UniProt P30729)
[12] = target: Alpha-1A adrenergic receptor (Rattus norvegicus, UniProt P43140)
Cannabinoid receptor 2 = Cannabinoid receptor 2 (Rattus norvegicus, UniProt Q9QZN9)
[13] = target: 5-hydroxytryptamine receptor 6 (Rattus norvegicus, UniProt P31388)
[14] = target: Alpha-2C adrenergic receptor (Rattus norvegicus, UniProt P22086)
[15] = target: 5-hydroxytryptamine receptor 5A (Rattus norvegicus, UniProt P35364)
[16] = target: Prostaglandin G/H synthase 2 (Rattus norvegicus, UniProt P35355)
[17] = target: Gamma-aminobutyric acid (GABA) B receptor 1 (Rattus norvegicus, UniProt Q6MFX8)
D(3) dopamine receptor = D(3) dopamine receptor (Rattus norvegicus, UniProt P19020)
Vasopressin V1a receptor = Vasopressin V1a receptor (Rattus norvegicus, UniProt P30560)
[18] = target: 5-hydroxytryptamine receptor 3A (Rattus norvegicus, UniProt P35563)
[19] = target: Melatonin receptor type 1A (Rattus norvegicus, UniProt P49218)
D(2) dopamine receptor = D(2) dopamine receptor (Rattus norvegicus, UniProt P61169)
[20] = target: Gastrin/cholecystokinin type B receptor (Rattus norvegicus, UniProt P30553)
[21] = target: Calcium release-activated calcium channel protein 1 (Homo sapiens, UniProt Q96D31)
Thromboxane A2 receptor = Thromboxane A2 receptor (Rattus norvegicus, UniProt P34978)
[22] = target: 5-hydroxytryptamine receptor 7 (Rattus norvegicus, UniProt P32305)
[23] = target: Beta-1 adrenergic receptor (Rattus norvegicus, UniProt P18090)
Prostacyclin receptor = Prostacyclin receptor (Rattus norvegicus, UniProt P43253)
Endothelin-1 receptor = Endothelin-1 receptor (Rattus norvegicus, UniProt P26684)

Measured: Ki

Chain of Glutamate receptor ionotropic, kainate 1 (P22756 whole entry): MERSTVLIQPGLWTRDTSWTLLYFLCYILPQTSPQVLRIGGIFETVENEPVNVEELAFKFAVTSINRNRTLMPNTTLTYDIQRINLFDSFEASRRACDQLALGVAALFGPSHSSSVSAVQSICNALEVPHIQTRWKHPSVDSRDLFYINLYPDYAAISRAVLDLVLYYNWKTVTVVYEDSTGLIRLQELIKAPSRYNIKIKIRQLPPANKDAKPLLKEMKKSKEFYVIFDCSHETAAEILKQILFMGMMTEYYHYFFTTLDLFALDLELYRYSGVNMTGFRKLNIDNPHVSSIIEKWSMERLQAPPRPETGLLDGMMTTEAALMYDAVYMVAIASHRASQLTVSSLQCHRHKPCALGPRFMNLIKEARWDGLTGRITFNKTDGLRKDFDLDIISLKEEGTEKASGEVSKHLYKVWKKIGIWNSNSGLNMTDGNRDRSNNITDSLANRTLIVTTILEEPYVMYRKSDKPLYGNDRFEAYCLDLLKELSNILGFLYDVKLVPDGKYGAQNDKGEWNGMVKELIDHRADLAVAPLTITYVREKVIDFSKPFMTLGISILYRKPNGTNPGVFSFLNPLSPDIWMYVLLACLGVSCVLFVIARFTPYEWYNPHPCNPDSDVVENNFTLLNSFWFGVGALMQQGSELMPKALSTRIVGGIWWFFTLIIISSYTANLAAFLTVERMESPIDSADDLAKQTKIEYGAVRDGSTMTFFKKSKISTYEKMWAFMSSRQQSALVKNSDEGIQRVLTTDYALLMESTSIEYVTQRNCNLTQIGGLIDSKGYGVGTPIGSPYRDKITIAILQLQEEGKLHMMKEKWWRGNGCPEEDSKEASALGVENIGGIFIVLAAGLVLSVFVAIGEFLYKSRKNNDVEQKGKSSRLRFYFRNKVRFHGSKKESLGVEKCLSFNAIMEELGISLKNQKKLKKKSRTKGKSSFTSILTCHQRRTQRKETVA
Chain of 5-hydroxytryptamine receptor 7 (P32305 whole entry): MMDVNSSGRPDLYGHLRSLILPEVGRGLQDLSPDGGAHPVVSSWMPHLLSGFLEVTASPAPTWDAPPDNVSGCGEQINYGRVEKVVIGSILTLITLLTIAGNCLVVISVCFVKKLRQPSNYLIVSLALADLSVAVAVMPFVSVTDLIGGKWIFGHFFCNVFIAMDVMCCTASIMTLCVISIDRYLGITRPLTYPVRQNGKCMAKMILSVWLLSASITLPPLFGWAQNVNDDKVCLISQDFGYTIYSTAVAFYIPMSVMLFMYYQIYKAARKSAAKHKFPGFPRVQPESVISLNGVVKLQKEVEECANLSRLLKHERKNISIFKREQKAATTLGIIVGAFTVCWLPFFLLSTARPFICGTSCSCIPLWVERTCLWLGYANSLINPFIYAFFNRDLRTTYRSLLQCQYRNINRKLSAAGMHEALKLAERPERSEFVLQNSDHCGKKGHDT
Chain of Gamma-aminobutyric acid (GABA) B receptor 1 (Q6MFX8 whole entry): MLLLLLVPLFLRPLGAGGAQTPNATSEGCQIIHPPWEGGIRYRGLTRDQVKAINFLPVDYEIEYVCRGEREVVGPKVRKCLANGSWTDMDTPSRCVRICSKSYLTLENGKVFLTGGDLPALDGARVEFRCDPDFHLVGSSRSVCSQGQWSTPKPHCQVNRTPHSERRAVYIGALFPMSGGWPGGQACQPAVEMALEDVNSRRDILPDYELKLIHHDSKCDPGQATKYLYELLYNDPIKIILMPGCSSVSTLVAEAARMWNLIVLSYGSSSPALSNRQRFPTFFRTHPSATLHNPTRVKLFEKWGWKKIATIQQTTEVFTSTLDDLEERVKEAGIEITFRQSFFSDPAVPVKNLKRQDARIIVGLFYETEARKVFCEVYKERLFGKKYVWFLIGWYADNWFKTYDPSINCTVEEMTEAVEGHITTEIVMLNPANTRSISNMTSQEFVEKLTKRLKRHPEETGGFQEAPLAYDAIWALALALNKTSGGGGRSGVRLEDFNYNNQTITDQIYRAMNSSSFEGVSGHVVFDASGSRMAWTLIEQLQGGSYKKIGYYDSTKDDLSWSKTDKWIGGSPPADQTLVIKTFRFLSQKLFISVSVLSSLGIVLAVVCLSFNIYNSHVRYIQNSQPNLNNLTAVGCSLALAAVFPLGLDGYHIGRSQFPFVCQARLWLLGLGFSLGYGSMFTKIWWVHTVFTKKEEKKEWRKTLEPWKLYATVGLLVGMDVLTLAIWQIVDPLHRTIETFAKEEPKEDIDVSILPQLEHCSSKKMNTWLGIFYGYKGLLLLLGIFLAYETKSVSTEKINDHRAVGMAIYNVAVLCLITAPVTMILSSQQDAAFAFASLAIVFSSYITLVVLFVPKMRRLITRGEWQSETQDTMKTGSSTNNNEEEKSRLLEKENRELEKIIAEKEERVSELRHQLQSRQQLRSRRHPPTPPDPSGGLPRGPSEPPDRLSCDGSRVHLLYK
Chain of Neuropeptide Y receptor type 2 (Q9ERC0 whole entry): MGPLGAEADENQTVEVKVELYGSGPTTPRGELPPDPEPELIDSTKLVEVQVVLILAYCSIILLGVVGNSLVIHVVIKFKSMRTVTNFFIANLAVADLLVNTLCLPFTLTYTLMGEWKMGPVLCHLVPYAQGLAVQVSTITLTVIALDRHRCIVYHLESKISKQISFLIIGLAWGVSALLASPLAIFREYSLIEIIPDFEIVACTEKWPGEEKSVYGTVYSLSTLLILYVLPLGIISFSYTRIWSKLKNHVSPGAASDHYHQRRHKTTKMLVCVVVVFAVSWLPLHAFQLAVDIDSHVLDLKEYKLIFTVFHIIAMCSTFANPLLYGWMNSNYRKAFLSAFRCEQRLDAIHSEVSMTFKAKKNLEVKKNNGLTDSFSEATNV
Chain of Kappa-type opioid receptor (P34975 whole entry): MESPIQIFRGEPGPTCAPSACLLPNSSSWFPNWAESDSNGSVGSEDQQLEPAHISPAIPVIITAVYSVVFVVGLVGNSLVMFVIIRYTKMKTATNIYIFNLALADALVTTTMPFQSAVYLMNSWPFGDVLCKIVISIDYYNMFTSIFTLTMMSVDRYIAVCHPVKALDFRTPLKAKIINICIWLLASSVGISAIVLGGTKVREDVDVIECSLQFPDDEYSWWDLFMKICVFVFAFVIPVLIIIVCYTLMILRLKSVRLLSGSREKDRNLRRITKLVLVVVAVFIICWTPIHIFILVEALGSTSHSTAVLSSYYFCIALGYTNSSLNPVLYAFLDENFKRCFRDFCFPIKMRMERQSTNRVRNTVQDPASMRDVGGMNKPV
Chain of Prostacyclin receptor (P43253 whole entry): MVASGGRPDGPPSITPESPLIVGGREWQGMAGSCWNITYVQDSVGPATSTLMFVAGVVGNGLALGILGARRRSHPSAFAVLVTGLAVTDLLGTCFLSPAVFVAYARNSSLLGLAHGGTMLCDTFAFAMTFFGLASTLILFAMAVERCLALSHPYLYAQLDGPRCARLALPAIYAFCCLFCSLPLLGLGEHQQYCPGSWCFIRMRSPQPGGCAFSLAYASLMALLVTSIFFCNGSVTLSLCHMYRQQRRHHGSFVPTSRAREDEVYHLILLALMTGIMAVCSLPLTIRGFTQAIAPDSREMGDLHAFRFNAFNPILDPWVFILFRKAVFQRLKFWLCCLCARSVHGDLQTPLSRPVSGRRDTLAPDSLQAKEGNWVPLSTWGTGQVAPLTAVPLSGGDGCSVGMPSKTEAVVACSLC
Chain of D(2) dopamine receptor (P61169 whole entry): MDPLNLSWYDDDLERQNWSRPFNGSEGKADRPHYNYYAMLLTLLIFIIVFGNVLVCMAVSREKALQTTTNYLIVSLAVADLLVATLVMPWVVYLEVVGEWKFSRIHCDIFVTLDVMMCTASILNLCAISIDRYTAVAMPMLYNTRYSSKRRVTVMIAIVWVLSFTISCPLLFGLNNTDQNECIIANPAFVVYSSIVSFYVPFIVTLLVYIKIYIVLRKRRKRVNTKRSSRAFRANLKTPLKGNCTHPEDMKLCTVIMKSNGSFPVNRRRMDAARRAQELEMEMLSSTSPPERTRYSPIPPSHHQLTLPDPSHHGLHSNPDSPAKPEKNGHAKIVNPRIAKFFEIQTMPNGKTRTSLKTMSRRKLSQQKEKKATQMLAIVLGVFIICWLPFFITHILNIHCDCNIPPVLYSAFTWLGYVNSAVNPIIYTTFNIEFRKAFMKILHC
Chain of Substance-P receptor (P14600 whole entry): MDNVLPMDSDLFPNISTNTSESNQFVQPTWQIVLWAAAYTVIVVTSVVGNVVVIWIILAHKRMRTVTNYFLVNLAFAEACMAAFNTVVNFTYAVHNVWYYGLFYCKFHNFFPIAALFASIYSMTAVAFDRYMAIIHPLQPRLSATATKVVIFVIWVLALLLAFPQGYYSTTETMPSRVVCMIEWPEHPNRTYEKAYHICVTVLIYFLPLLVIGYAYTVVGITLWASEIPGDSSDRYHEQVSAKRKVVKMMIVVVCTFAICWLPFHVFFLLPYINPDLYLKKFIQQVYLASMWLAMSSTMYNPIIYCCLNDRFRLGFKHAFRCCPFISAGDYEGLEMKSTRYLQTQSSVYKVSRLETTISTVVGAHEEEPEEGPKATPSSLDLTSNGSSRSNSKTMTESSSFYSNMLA
Chain of 5-hydroxytryptamine receptor 3A (P35563 whole entry): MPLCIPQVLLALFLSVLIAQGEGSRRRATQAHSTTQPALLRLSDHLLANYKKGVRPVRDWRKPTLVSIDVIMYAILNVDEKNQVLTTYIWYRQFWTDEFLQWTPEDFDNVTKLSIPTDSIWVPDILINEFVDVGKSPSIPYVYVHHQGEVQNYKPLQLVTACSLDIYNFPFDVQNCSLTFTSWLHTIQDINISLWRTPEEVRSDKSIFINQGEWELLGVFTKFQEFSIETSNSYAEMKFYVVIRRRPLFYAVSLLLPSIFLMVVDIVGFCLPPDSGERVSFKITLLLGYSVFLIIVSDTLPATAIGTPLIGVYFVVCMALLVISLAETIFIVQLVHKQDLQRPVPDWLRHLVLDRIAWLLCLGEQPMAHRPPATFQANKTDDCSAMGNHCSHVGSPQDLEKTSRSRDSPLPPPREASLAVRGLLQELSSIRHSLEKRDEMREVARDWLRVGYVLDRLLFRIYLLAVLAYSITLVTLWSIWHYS
Chain of Galanin peptides (P10683 33-61 limits assumed): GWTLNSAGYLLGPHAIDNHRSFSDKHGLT

Nc1ncnc2nc(-c3ccc(N4CCOCC4)nc3)cc(-c3cccc(Br)c3)c12
4.6 µM: [7]
8.56 µM: Substance-K receptor
> 10 µM: all other assays above
